# Laboratory results: patent US20150290105A1, “COMPOSITION COMPRISING SYRINGARESINOL FOR IMPROVING THE SKIN” (AMOREPACIFIC CORPORATION, priority 2011, published 2015)
# What was measured:
# [1] = tested on: Melanocytes (Mel-Ab cells); experiment: Test of cytotoxicity (crystal violet cell viability) in mouse melanocytes; format: cell-based; conditions: 24 hours
# Protocol: Cytotoxicity was tested for syringaresinol in mouse melanocytes as follows.
# Melanocytes (Mel-Ab cells) derived from C57BL/6 (treated with Dooley et al.'s method) were cultured under the condition of 37° C. and 5% CO2 in Dulbecco's modified Eagle's medium (DMEM) containing 10% fetal bovine serum, 100 nM 12-O-tetradecanoylphorbol-13-acetate and 1 nM cholera toxin. The cultured Mel-Ab cells were detached with 0.25% trypsin-EDTA, cultured in a 24-well plate to a concentration of 10^5 cells/well and then treated with the syringaresinol prepared in Example. After culturing for 24 hours, the cells were washed with phosphate buffered saline (PBS, pH 7.2) and then stained using 0.1% crystal violet (Sigma) and 10% ethanol (EtOH) for 5 minutes at room temperature. After completely removing free crystal violet, the cells were washed 3 times with PBS (pH 7.2). The stained cells were treated with 95% ethanol (EtOH) for 1 hour at room temperature to extract crystal violet. The absorbance of the extract was measured at 540 nm using the Lambda 25 spectrophotometer (PerkinElmer) and cell viability (%) was calculated according to Equation 1.
# Cell viability (%)=(A/B)×100 [Equation 1]
# A: absorbance in the presence of syringaresinol
# B: absorbance in the absence of syringaresinol
# [2] = tested on: mushroom-derived tyrosinase; experiment: Tyrosinase activity inhibiting effect (dopachrome formation); format: biochemical; conditions: 10 ppm, 37° C. 10 minutes
# Protocol: The reaction solution was prepared by adding 500 μL of 0.1 M PBS, 15 μg of L-tyrosine and 50 μL of syringaresinol and then adding distilled water to make the final volume 1500 μL. A solution prepared through the same procedure but with Kojic acid instead of syringaresinol was used as a positive control. The concentration of all the samples used in experiment was set to 10 ppm. After adding 10 units of mushroom-derived tyrosinase to the reaction solution, followed by reaction at 37° C. for 10 minutes, the reaction was stopped by quickly transferring onto ice for 5 minutes. The synthesis rate of dopachrome produced was determined by measuring absorbance at 475 nm and tyrosinase activity inhibiting rate (%) was calculated therefrom.
# [3] = Skin whitening effect when applied to UVB-tanned human skin; format: in vivo; conditions: 1% applied on upper arm after UVB, 10 weeks, 12 male subjects
# Protocol: First, opaque tapes having holes of 1.5 cm in diameter were attached on the upper arms of 12 healthy male subjects and UVB of about 1.5-2 times the minimal erythemal dose was irradiated to each subject to induce skin tanning. […] Then, the change was monitored for 10 weeks. The color of the skin was measured with 1-week interval using the CR2002 colorimeter (Minolta, Japan). The change in skin color (ΔL*) between the time when the test substance was applied and the time when the test was completed was calculated according to Equation 3. Skin whitening effect is evaluated by comparing the ΔL* of the part where the test substance was applied with that of the control part. A ΔL* value of about 2 can be interpreted as distinct skin whitening effect and one about 1.5 can be evaluated as positive skin whitening effect.
# ΔL*=(L* when test was completed)−(L* when test substance was applied) [Equation 3]
# SIRT1 [4] = experiment: SIRT1 expression promoting effect in human keratinocytes; format: cell-based; conditions: HaCaT cells, 20, 50 or 100 μM, 24 hours, FIG. 3
# Protocol: (§1) Human keratinocyte HaCaT cells or human fibroblast HDF cells were cultured under the condition of 37° C. and 5% CO2 in DMEM ((Gibco 1210-0038)) containing 10% fetal bovine serum.
# (§2) The cultured cells were treated with syringaresinol dissolved in DMSO at a concentration of 20, 50 or 100 μM for 24 hours. Separately from this, the cells were treated with DMSO of 1/1000 of the volume of the culture medium as a negative control. After treating with the test substance, the cells were washed twice with cold PBS and RNA was extracted using TRIzol reagent (Invitrogen). Then, cDNA was synthesized using 1 μg/μL of the extracted RNA and a reverse transcription system (Promega). The expression pattern of the SIRT1 and GAPDH genes was monitored using the synthesized cDNA and predesigned primers and probes (Applied Biosystems; SIRT1, Hs01009006_ml; GAPDH, Hs99999905_ml). PCR reaction and analysis were carried out using the Rotor-Gene 3000 system (Corbett Research, Sydney, Australia). The result is shown in FIG. 3 (keratinocytes) and FIG. 4 (fibroblasts).
# SIRT1 [5] = experiment: SIRT1 expression promoting effect in human fibroblasts; format: cell-based; conditions: HDF cells, 20, 50 or 100 μM, 24 hours, FIG. 4
# Protocol: as §1, §2
structure (smiles),measurement,setting,value
"COc1cc(C2OCC3C(c4cc(OC)c(O)c(OC)c4)OCC23)cc(OC)c1O (centres unmarked) [Syringaresinol, syringaresinol]",Cell viability (%),[1],98.6%
same,Tyrosinase activity inhibiting rate (%),[2],90.2%
same,Change in skin brightness (ΔL*),[3],1.98 ± 0.11
same,Increase of SIRT1 expression,SIRT1 [4],≥ 4 times
same,Increase of SIRT1 expression,SIRT1 [5],≥ 4 times
